Columns and labels:
Type in all cases: in vivo
[1] = tested on: ragweed (common ragweed, Ambrosia elatior); assay: Test C greenhouse herbicide test, pre- and postemergence
Summary of the method: (§1)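 Pre- and postemergence greenhouse screen; values are visual control ratings, 0 meaning no effect and 100 complete kill, assigned relative to untreated plants after 13 to 15 d.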

[2] = tested on: blackgrass (Alopecurus myosuroides); assay: as above
Summary of the method: as §1

[3] = tested on: galium (catchweed bedstraw, Galium aparine); assay: as above
Summary of the method: as §1

[4] = tested on: pigweed (Amaranthus retroflexus); assay: as above
Summary of the method: as §1

[5] = tested on: johnsongrass (Sorghum halepense); assay: as above
Summary of the method: as §1

[6] = tested on: waterhemp (common waterhemp, Amaranthus rudis); assay: as above
Summary of the method: as §1

[7] = tested on: morningglory (Ipomoea coccinea); assay: as above
Summary of the method: as §1

[8] = tested on: crabgrass, large (large crabgrass, Digitaria sanguinalis); assay: as above
Summary of the method: as §1

[9] = tested on: barnyardgrass (Echinochloa crus-galli); assay: as above
Summary of the method: as §1

corn (Zea mays) = assay: as above
Summary of the method: as §1

[10] = tested on: wheat (winter wheat, Triticum aestivum); assay: as above
Summary of the method: as §1

[11] = tested on: velvetleaf (Abutilon theophrasti); assay: as above
Summary of the method: as §1

soybean (Glycine max) = assay: as above
Summary of the method: as §1

[12] = tested on: oilseed rape (Brassica napus); assay: as above
Summary of the method: as §1

[13] = tested on: foxtail, giant (giant foxtail, Setaria faberii); assay: as above
Summary of the method: as §1

[14] = tested on: oat, wild (wild oat, Avena fatua); assay: Test C greenhouse herbicide test, postemergence
Summary of the method: (§2)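 Greenhouse postemergence spray on plants 2–18 cm tall; response judged visually after 13–15 d relative to untreated controls using a 0 (none) to 100 (full control) scale.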

kochia (Kochia scoparia) = assay: Test C greenhouse herbicide test, postemergence
Summary of the method: as §2

[15] = Postemergence, 31 g ai/ha, 0 to 100 scale (0 no effect, 100 complete control)
[16] = Postemergence, 125 g ai/ha, scale 0 to 100, 0 is no effect, 100 is complete control
[17] = Postemergence, 250 g ai/ha, scale 0 to 100, 0 no effect, 100 complete control, 13 to 15 d
[18] = Preemergence, 31 g ai/ha, scale 0 to 100, 0 is no effect, 100 is complete control
[19] = Preemergence, 62 g ai/ha, scale 0 to 100, 0 is no effect, 100 is complete control
[20] = Preemergence, 125 g ai/ha, scale 0 to 100, 0 is no effect, 100 is complete control
[21] = Preemergence, 250 g ai/ha, scale 0 to 100 (0 no effect, 100 complete control)
[22] = postemergence, 62 g ai/ha, scale 0 to 100, 0 no effect, 100 complete control

SMILES: Cc1ccc2ccc(C)c(-c3c(O)c(C)nn(C)c3=O)c2c1 [Compound 60]
- Ragweed plant response rating [1, 15]: 85
- Plant response rating, Ragweed [1, 16]: 98
- Plant response rating, Ragweed [1, 17]: 100
- Plant response rating, Ragweed [1, 18]: 80
- Plant response rating, Ragweed [1, 19]: 90
- Plant response rating, Ragweed [1, 20]: 95
- Ragweed plant response rating [1, 21]: 95
- Ragweed plant response rating [1, 22]: 90
- Blackgrass plant response rating [2, 15]: 50
- Plant response rating, Blackgrass [2, 16]: 85
- Plant response rating, Blackgrass [2, 17]: 90
- Plant response rating, Blackgrass [2, 18]: 90
- Plant response rating, Blackgrass [2, 19]: 90
- Plant response rating, Blackgrass [2, 20]: 90
- Blackgrass plant response rating [2, 21]: 90
- Blackgrass plant response rating [2, 22]: 60
- Galium plant response rating [3, 15]: 100
- Plant response rating, Galium [3, 16]: 100
- Plant response rating, Galium [3, 17]: 100
- Plant response rating, Galium [3, 18]: 90
- Plant response rating, Galium [3, 19]: 95
- Plant response rating, Galium [3, 20]: 98
- Galium plant response rating [3, 21]: 100
- Galium plant response rating [3, 22]: 100
- Pigweed plant response rating [4, 15]: 85
- Plant response rating, Pigweed [4, 16]: 95
- Plant response rating, Pigweed [4, 17]: 98
- Plant response rating, Pigweed [4, 18]: 100
- Plant response rating, Pigweed [4, 19]: 100
- Plant response rating, Pigweed [4, 20]: 100
- Pigweed plant response rating [4, 21]: 100
- Pigweed plant response rating [4, 22]: 85
- Johnsongrass plant response rating [5, 15]: 5
- Plant response rating, Johnsongrass [5, 16]: 55
- Plant response rating, Johnsongrass [5, 17]: 45
- Plant response rating, Johnsongrass [5, 18]: 5
- Plant response rating, Johnsongrass [5, 19]: 20
- Plant response rating, Johnsongrass [5, 20]: 40
- Johnsongrass plant response rating [5, 21]: 60
- Johnsongrass plant response rating [5, 22]: 35
- Waterhemp plant response rating [6, 15]: 65
- Plant response rating, Waterhemp [6, 16]: 98
- Plant response rating, Waterhemp [6, 17]: 98
- Plant response rating, Waterhemp [6, 18]: 100
- Plant response rating, Waterhemp [6, 19]: 100
- Plant response rating, Waterhemp [6, 20]: 100
- Waterhemp plant response rating [6, 21]: 100
- Waterhemp plant response rating [6, 22]: 90
- Morningglory plant response rating [7, 15]: 90
- Plant response rating, Morningglory [7, 16]: 100
- Plant response rating, Morningglory [7, 17]: 100
- Plant response rating, Morningglory [7, 18]: 85
- Plant response rating, Morningglory [7, 19]: 98
- Plant response rating, Morningglory [7, 20]: 98
- Morningglory plant response rating [7, 21]: 100
- Morningglory plant response rating [7, 22]: 98
- Crabgrass, Large plant response rating [8, 15]: 15
- Plant response rating, Crabgrass, Large [8, 16]: 50
- Plant response rating, Crabgrass, Large [8, 17]: 65
- Plant response rating, Crabgrass, Large [8, 18]: 20
- Plant response rating, Crabgrass, Large [8, 19]: 75
- Plant response rating, Crabgrass, Large [8, 20]: 85
- Crabgrass, Large plant response rating [8, 21]: 95
- Crabgrass, Large plant response rating [8, 22]: 35
- Barnyardgrass plant response rating [9, 15]: 20
- Plant response rating, Barnyardgrass [9, 16]: 35
- Plant response rating, Barnyardgrass [9, 17]: 65
- Plant response rating, Barnyardgrass [9, 18]: 10
- Plant response rating, Barnyardgrass [9, 19]: 40
- Plant response rating, Barnyardgrass [9, 20]: 85
- Barnyardgrass plant response rating [9, 21]: 90
- Barnyardgrass plant response rating [9, 22]: 25
- Corn plant response rating (corn (Zea mays); [15]): 10
- Plant response rating, Corn (corn (Zea mays); [16]): 30
- Plant response rating, Corn (corn (Zea mays); [17]): 35
- Plant response rating, Corn (corn (Zea mays); [18]): 0
- Plant response rating, Corn (corn (Zea mays); [19]): 10
- Plant response rating, Corn (corn (Zea mays); [20]): 30
- Corn plant response rating (corn (Zea mays); [21]): 45
- Corn plant response rating (corn (Zea mays); [22]): 25
- Wheat plant response rating [10, 15]: 5
- Plant response rating, Wheat [10, 16]: 30
- Plant response rating, Wheat [10, 17]: 15
- Plant response rating, Wheat [10, 18]: 10
- Plant response rating, Wheat [10, 19]: 40
- Plant response rating, Wheat [10, 20]: 45
- Wheat plant response rating [10, 21]: 70
- Wheat plant response rating [10, 22]: 5
- Velvetleaf plant response rating [11, 15]: 40
- Plant response rating, Velvetleaf [11, 16]: 90
- Plant response rating, Velvetleaf [11, 17]: 95
- Plant response rating, Velvetleaf [11, 18]: 75
- Plant response rating, Velvetleaf [11, 19]: 85
- Plant response rating, Velvetleaf [11, 20]: 95
- Velvetleaf plant response rating [11, 21]: 98
- Velvetleaf plant response rating [11, 22]: 85
- Soybean plant response rating (soybean (Glycine max); [15]): 15
- Plant response rating, Soybean (soybean (Glycine max); [16]): 40
- Plant response rating, Soybean (soybean (Glycine max); [17]): 50
- Plant response rating, Soybean (soybean (Glycine max); [18]): 0
- Plant response rating, Soybean (soybean (Glycine max); [19]): 45
- Plant response rating, Soybean (soybean (Glycine max); [20]): 65
- Soybean plant response rating (soybean (Glycine max); [21]): 75
- Soybean plant response rating (soybean (Glycine max); [22]): 20
- Oilseed Rape plant response rating [12, 15]: 5
- Plant response rating, Oilseed Rape [12, 16]: 85
- Plant response rating, Oilseed Rape [12, 17]: 80
- Plant response rating, Oilseed Rape [12, 18]: 30
- Plant response rating, Oilseed Rape [12, 19]: 85
- Plant response rating, Oilseed Rape [12, 20]: 90
- Oilseed Rape plant response rating [12, 21]: 90
- Oilseed Rape plant response rating [12, 22]: 5
- Foxtail, Giant plant response rating [13, 15]: 45
- Plant response rating, Foxtail, Giant [13, 16]: 70
- Plant response rating, Foxtail, Giant [13, 17]: 90
- Plant response rating, Foxtail, Giant [13, 18]: 75
- Plant response rating, Foxtail, Giant [13, 19]: 85
- Plant response rating, Foxtail, Giant [13, 20]: 100
- Foxtail, Giant plant response rating [13, 21]: 100
- Foxtail, Giant plant response rating [13, 22]: 60
- Oat, Wild plant response rating [14, 15]: 85
- Plant response rating, Oat, Wild [14, 16]: 95
- Plant response rating, Oat, Wild [14, 17]: 95
- Oat, Wild plant response rating [14, 22]: 95
- Kochia plant response rating (kochia (Kochia scoparia); [15]): 90
- Plant response rating, Kochia (kochia (Kochia scoparia); [16]): 100
- Plant response rating, Kochia (kochia (Kochia scoparia); [17]): 100
- Kochia plant response rating (kochia (Kochia scoparia); [22]): 90

From US10597388B2, “Pyridazinone herbicides” (FMC CORPORATION, priority 2014, dated 2020)
